Here are results for 19 compounds from patent publication US20220144847A1, “HETEROCYCLIC COMPOUND, PHARMACEUTICAL COMPOSITION COMPRISING SAME, PREPARATION METHOD THEREFOR, AND USE THEREOF” (Sichuan Kelun-Biotech Biopharmaceutical Co., Ltd., priority 2019, published 2022).

The target in one test is RET-V804M (Homo sapiens, UniProt P07949, V804M). Nature of the test: RET inhibition experiment (HTRF KinEASE-TK kit), mutant RET-V804M. Particulars: for IC50: read-out: The IC50 (nM) for inhibiting V804M. The format is biochemical. How it is done:
Experimental method: According to the instructions of the HTRF KinEASE-TK kit (Cisbio), the compounds of the present disclosure were tested for their inhibitory effects on the activity of wild-type RET enzyme, mutant RET enzyme (RET-V804M, RET-V804L, and RET-M918T) and fusion-type RET enzyme (RET-CCDCl6). After pre-incubation of different RET enzymes and different concentrations of the test compounds at room temperature for 30 min, a substrate and adenosine triphosphate (ATP) were added to initiate the reaction. After incubation at room temperature for 40 min, TK antibody-cryptate and streptavidin-XL665 were added, and the test was performed after incubation at room temperature for 45 min. With the solvent group (DMSO) as the negative control and the buffer group (without RET enzyme) as the blank control, the relative inhibitory activity percentages (i.e., inhibition rates) of different concentrations of the compounds were computed as per the following formula:
(§1) Relative inhibitory activity percentage=1−(compound group of different concentrations−blank control)/(negative control−blank control)*100%
(§2) The relative inhibitory activity percentages of different concentrations of the compounds were plotted with respect to the compound concentrations, and the curve was fitted according to a four-parameter model to compute the IC50 value as per the following formula:
(§3) y=min+(max−min)/(1+(x/IC50)^(−Hillslope))
(§4) where y is the relative inhibitory activity percentage, max is the maximum value of the fitted curve, min is the minimum value of the fitted curve, x is the logarithmic concentration of the compound, and Hillslope is the slope of the curve.
A general note: Time-resolved FRET reads energy transfer from a long-lived donor to a nearby acceptor.

For a further test, the target named is VEGFR2 (Homo sapiens, UniProt P35968). The test can be described thus: VEGFR2 inhibition experiment (HTRF KinEASE-TK kit). The class given is biochemical. Particulars: read-out: Inhibition rate on VEGFR2; for inhibition at 0.03 µM: 30 nM. The procedure:
Experimental method: According to the instructions of the HTRF KinEASE-TK kit (Cisbio), the compounds of the present disclosure were tested for their inhibitory effects on the VEGFR2 enzyme activity. After pre-incubation of the VEGFR2 enzyme and different concentrations of test compounds at room temperature for 30 min, a substrate and adenosine triphosphate (ATP) were added to initiate the reaction. After incubation at room temperature for 40 min, TK antibody-cryptate and streptavidin-XL665 were added, and the test was performed after incubation at room temperature for 45 min. With the solvent group (DMSO) as the negative control and the buffer group (without VEGFR2 enzyme) as the blank control, the relative inhibitory activity percentages (i.e., inhibition rates) of different concentrations of the compounds were computed as per the following formula:
as §1, §2, §3, §4

Setting [1] is: 10 nM (Table 2), read-out: Inhibition rate on RET-V804M.

Structures are written as SMILES. Like-named read-outs stand apart in the source and are kept apart here.

RET-V804M, sequence (P07949 29-1114 V804M): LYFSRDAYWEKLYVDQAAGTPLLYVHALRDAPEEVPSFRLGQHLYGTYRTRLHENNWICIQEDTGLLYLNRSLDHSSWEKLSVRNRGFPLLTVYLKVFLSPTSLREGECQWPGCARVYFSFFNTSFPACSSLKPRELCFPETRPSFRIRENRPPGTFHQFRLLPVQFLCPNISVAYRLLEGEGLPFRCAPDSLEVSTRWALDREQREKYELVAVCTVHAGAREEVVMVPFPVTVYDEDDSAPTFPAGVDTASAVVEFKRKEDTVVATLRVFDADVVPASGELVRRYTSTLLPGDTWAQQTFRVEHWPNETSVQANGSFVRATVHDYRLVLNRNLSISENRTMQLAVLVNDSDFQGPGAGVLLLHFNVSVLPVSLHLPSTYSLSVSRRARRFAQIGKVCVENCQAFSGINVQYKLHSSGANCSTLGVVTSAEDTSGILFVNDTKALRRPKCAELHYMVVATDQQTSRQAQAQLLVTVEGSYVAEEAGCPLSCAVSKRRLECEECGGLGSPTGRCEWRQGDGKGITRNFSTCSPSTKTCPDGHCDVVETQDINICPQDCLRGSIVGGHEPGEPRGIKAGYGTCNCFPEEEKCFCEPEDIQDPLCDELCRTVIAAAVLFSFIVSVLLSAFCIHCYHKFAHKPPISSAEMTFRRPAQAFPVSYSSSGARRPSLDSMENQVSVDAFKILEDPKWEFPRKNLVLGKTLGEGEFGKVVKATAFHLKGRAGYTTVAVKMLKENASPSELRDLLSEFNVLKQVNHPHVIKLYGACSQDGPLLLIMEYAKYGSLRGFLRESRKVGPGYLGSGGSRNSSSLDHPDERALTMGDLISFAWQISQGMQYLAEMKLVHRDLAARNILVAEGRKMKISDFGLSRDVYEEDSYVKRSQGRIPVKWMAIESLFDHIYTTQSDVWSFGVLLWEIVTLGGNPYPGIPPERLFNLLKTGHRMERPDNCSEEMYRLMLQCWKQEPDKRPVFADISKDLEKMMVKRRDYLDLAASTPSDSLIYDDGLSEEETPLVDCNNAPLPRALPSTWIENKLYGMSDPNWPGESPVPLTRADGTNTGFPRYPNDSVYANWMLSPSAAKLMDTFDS
VEGFR2, sequence (P35968 20-1356, species assumed): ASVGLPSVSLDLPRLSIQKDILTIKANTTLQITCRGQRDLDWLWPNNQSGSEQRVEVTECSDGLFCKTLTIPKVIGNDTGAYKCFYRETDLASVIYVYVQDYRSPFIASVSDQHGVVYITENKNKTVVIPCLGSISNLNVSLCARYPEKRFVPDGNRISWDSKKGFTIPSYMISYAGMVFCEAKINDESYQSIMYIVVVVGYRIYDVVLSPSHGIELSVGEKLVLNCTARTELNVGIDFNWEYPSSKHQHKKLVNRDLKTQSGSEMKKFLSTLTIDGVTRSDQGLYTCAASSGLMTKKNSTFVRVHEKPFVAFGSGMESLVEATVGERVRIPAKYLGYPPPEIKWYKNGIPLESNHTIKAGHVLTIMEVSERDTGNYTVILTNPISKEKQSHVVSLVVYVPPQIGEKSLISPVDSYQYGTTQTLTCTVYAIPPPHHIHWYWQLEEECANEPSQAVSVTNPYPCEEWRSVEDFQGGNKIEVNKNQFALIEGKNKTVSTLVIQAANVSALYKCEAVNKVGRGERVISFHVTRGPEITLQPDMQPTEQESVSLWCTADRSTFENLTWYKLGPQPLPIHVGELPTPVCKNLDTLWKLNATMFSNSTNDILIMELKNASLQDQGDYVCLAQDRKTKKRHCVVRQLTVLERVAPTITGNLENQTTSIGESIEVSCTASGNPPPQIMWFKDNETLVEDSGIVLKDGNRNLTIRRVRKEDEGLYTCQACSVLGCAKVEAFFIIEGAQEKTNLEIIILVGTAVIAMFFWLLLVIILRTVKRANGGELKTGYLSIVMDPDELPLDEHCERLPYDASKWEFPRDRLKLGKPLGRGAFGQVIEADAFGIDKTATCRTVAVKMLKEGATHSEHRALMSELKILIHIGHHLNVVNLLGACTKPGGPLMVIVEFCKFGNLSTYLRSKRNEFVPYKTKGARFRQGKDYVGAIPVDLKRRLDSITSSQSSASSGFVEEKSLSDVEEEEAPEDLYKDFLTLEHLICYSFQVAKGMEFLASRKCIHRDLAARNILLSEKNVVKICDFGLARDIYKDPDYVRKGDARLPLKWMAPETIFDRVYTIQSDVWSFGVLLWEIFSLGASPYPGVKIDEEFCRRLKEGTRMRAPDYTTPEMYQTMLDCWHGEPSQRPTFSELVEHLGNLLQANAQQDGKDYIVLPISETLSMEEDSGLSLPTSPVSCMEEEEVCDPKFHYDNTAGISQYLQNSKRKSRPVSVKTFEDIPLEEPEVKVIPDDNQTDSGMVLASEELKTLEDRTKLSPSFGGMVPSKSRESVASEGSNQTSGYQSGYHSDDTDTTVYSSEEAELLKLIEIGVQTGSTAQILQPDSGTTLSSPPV

Usually IC50 stands for the midpoint of a concentration-inhibition curve. As usually defined, the inhibition is the change of the read-out against control, counted positive when it falls. As for `Cc1cnn(-c2ccc(CN3C4CC3CN(c3ccc(-c5nc(C)cc(Nc6cc(C)[nH]n6)n5)cn3)C4)cn2)c1` [Compound 62, 6-methyl-2-(6-(6-((6-(4-methyl-1H-pyrazol-1-yl)pyridin-3-yl)methyl)-3,6-diazabicyclo[3.1.1]heptan-3-yl)pyridin-3-yl)-N-(5-methyl-1H-pyrazol-3-yl)pyrimidin-4-amine], at RET-V804M, the IC50 turned out to be 4.53 ± 1.23 nM. In addition, the inhibition at 0.1 µM at VEGFR2 (100 nM) was 62%.

Take `Cc1cc(Nc2cc(C)[nH]n2)nc(-c2ccc(N3CC4CC(C3)N4Cc3ccc(-n4ccc(F)n4)nc3)nc2)n1` [Compound 63, 2-(6-(6-((6-(3-fluoro-1H-pyrazol-1-yl)pyridin-3-yl)methyl)-3,6-diazabicyclo[3.1.1]heptan-3-yl)pyridin-3-yl)-6-methyl-N-(5-methyl-1H-pyrazol-3-yl)pyrimidin-4-amine]: on RET-V804M (setting [1]), the inhibition at 0.01 µM stood at 65%. For the same compound, the inhibition at 0.1 µM on VEGFR2 (100 nM) came out at 38%.

Regarding `Cc1cc(Nc2cc(C)[nH]n2)nc(-c2ccc(N3CC4CC(C3)N4Cc3ccc(-n4cnc(F)c4)nc3)nc2)n1` [Compound 64, 2-(6-(6-((6-(4-fluoro-1H-imidazol-1-yl)pyridin-3-yl)methyl)-3,6-diazabicyclo[3.1.1]heptan-3-yl)pyridin-3-yl)-6-methyl-N-(5-methyl-1H-pyrazol-3-yl)pyrimidin-4-amine], at RET-V804M (setting [1]), the inhibition at 0.01 µM amounted to 79%. Moreover, the inhibition at 0.1 µM at VEGFR2 (100 nM) was 38%.

In the case of `Cc1cc(Nc2cc(C)[nH]n2)nc(-c2ccc(N3CC4CC(C3)N4Cc3ccc(F)cn3)nc2)n1` [Compound 70, 2-(6-(6-((5-fluoropyridin-2-yl)methyl)-3,6-diazabicyclo[3.1.1]heptan-3-yl)pyridin-3-yl)-6-methyl-N-(5-methyl-1H-pyrazol-3-yl)pyrimidin-4-amine], at RET-V804M, the concentration for half-maximal inhibition (IC50) was 41.4 ± 3.73 nM. Further, the inhibition at 0.1 µM on VEGFR2 (100 nM) is 14%.

For `Cc1ccc(CN2C3CC2CN(c2ccc(-c4nc(C)cc(Nc5cc(C)[nH]n5)n4)cn2)C3)cc1` [Compound 80, 6-methyl-N-(5-methyl-1H-pyrazol-3-yl)-2-(6-(6-(4-methylbenzyl)-3,6-diazabicyclo[3.1.1]heptan-3-yl)pyridin-3-yl)pyrimidin-4-amine], the inhibition at 0.01 µM at RET-V804M (read-out: Inhibition rate on RET-V804M) is 51%. Also, at VEGFR2, the inhibition at 0.1 µM is -10%.

On to `Cc1cc(Nc2cc(C)[nH]n2)nc(-c2ccc(N3CC4CC(C3)N4Cc3ccc(Cl)cc3)nc2)n1` [Compound 82, 2-(6-(6-(4-chlorobenzyl)-3,6-diazabicyclo[3.1.1]heptan-3-yl)pyridin-3-yl)-6-methyl-N-(5-methyl-1H-pyrazol-3-yl)pyrimidin-4-amine], for which the inhibition at 0.01 µM at RET-V804M (setting [1]) amounted to 43%. For the same compound, the inhibition at 0.1 µM on VEGFR2 (100 nM) is 15%.

Consider `Cc1cc(Nc2cc(C)[nH]n2)nc(-c2ccc(N3CC4CC(C3)N4Cc3ccc(F)cc3)nc2)n1` [Compound 83, 2-(6-(6-(4-fluorobenzyl)-3,6-diazabicyclo[3.1.1]heptan-3-yl)pyridin-3-yl)-6-methyl-N-(5-methyl-1H-pyrazol-3-yl)pyrimidin-4-amine], for which the inhibition at 0.01 µM on RET-V804M (setting [1]) turned out to be 56%. On VEGFR2 (100 nM), the inhibition at 0.1 µM was found to be 18%.

Take `Cc1cc(Nc2cc(C)[nH]n2)nc(-c2ccc(N3CC4CC(C3)N4Cc3ccc(-n4cccn4)cc3)nc2)n1` [Compound 86, 2-(6-(6-(4-(1H-pyrazol-1-yl)benzyl)-3,6-diazabicyclo[3.1.1]heptan-3-yl)pyridin-3-yl)-6-methyl-N-(5-methyl-1H-pyrazol-3-yl)pyrimidin-4-amine]: on RET-V804M (setting [1]), the inhibition at 0.01 µM is 64%. At VEGFR2 (100 nM), the inhibition at 0.1 µM is 52%.

For `Cc1cnn(-c2ccc(CN3C4CC3CN(c3ccc(-c5nc(C)cc(Nc6cc(C)[nH]n6)n5)cn3)C4)cc2)c1` [Compound 88, 6-methyl-2-(6-(6-(4-(4-methyl-1H-pyrazol-1-yl)benzyl)-3,6-diazabicyclo[3.1.1]heptan-3-yl)pyridin-3-yl)-N-(5-methyl-1H-pyrazol-3-yl)pyrimidin-4-amine], the inhibition at 0.01 µM at RET-V804M (setting [1]) is 62%. In addition, the inhibition at 0.1 µM on VEGFR2 (100 nM) was determined as 32%.

As for `Cc1cc(Nc2cc(C)[nH]n2)nc(-c2ccc(N3CC4CC(C3)N4Cc3ccc(-n4ccc(F)n4)cc3)nc2)n1` [Compound 89, 2-(6-(6-(4-(3-fluoro-1H-pyrazol-1-yl)benzyl)-3,6-diazabicyclo[3.1.1]heptan-3-yl)pyridin-3-yl)-6-methyl-N-(5-methyl-1H-pyrazol-3-yl)pyrimidin-4-amine], on RET-V804M (setting [1]), the inhibition at 0.01 µM was 70%. In addition, the inhibition at 0.1 µM on VEGFR2 (100 nM) worked out at 16%.

Consider `Cc1cc(Nc2cc(C)[nH]n2)nc(-c2ccc(N3CC4CC(C3)N4Cc3ccc(-n4cc(F)cn4)cc3)nc2)n1` [Compound 91, 2-(6-(6-(4-(4-fluoro-1H-pyrazol-1-yl)benzyl)-3,6-diazabicyclo[3.1.1]heptan-3-yl)pyridin-3-yl)-6-methyl-N-(5-methyl-1H-pyrazol-3-yl)pyrimidin-4-amine], for which, at RET-V804M (setting [1]), the inhibition at 0.01 µM was 70%. Besides, at VEGFR2 (100 nM), the inhibition at 0.1 µM was 26%.

Consider `COc1ccc(F)c(CN2C3CC2CN(c2ccc(-c4nc(C)cc(Nc5cc(C)[nH]n5)n4)cn2)C3)c1` [Compound 96, 2-(6-(6-(2-fluoro-5-methoxybenzyl)-3,6-diazabicyclo[3.1.1]heptan-3-yl)pyridin-3-yl)-6-methyl-N-(5-methyl-1H-pyrazol-3-yl)pyrimidin-4-amine], for which the inhibition at 0.1 µM is 84% at RET-V804M (100 nM (Table 2), read-out: Inhibition rate on RET-V804M) and 4% at VEGFR2 (100 nM).

Regarding `Cc1ccc(OC2CCN(c3ccc(-c4nc(C)cc(Nc5cc(C)[nH]n5)n4)cn3)CC2)cn1` [Compound 119, 6-methyl-N-(5-methyl-1H-pyrazol-3-yl)-2-(6-(4-((6-methylpyridin-3-yl)oxy)piperidin-1-yl)pyridin-3-yl)pyrimidin-4-amine], the IC50 at RET-V804M was 14.2 ± 1.27 nM. In addition, the inhibition at 0.1 µM on VEGFR2 (100 nM) was -7%.

Take `Cc1cc(Nc2cc(C)[nH]n2)nc(-c2ccc(N3CC4CC(C3)N4Cc3ccc(-n4cc(C)c(C)n4)nc3)nc2)n1` [Compound 121, 2-(6-(6-((6-(3,4-dimethyl-1H-pyrazol-1-yl)pyridin-3-yl)methyl)-3,6-diazabicyclo[3.1.1]heptan-3-yl)pyridin-3-yl)-6-methyl-N-(5-methyl-1H-pyrazol-3-yl)pyrimidin-4-amine]: on RET-V804M, the IC50 stood at 6.22 ± 1.39 nM. In addition, the inhibition at 0.1 µM on VEGFR2 (100 nM) is 37%.

Regarding `Cc1cc(Nc2cc(C)[nH]n2)nc(-c2ccc(N3CC4CC(C3)N4Cc3ccc(-c4ccc[nH]4)nc3)nc2)n1` [Compound 123, 2-(6-(6-((6-(1H-pyrrol-2-yl)pyridin-3-yl)methyl)-3,6-diazabicyclo[3.1.1]heptan-3-yl)pyridin-3-yl)-6-methyl-N-(5-methyl-1H-pyrazol-3-yl)pyrimidin-4-amine], at RET-V804M, the IC50 worked out at 1.88 ± 0.11 nM. Further, the inhibition at 0.03 µM on VEGFR2 came to 56%.

Turning to `Cc1cc(Nc2cc(C)[nH]n2)nc(-c2ccc(N3CC4CC(C3)N4Cc3ccc(-n4cc(F)c(C5CC5)n4)nc3)nc2)n1` [Compound 124, 2-(6-(6-((6-(3-cyclopropyl-4-fluoro-1H-pyrazol-1-yl)pyridin-3-yl)methyl)-3,6-diazabicyclo[3.1.1]heptan-3-yl)pyridin-3-yl)-6-methyl-N-(5-methyl-1H-pyrazol-3-yl)pyrimidin-4-amine], the IC50 at RET-V804M was determined as 10.7 ± 0.98 nM. For the same compound, on VEGFR2, the inhibition at 0.03 µM worked out at 41%.

Regarding `Cc1cc(Nc2cc(C)[nH]n2)nc(-c2ccc(N3CC4CC(C3)N4Cc3ccc(-c4cccn4C)nc3)nc2)n1` [Compound 128, 6-methyl-N-(5-methyl-1H-pyrazol-3-yl)-2-(6-(6-((6-(1-methyl-1H-pyrrol-2-yl)pyridin-3-yl)methyl)-3,6-diazabicyclo[3.1.1]heptan-3-yl)pyridin-3-yl)pyrimidin-4-amine], the inhibition at 0.01 µM at RET-V804M (setting [1]) came out at 48%. Moreover, the inhibition at 0.1 µM on VEGFR2 (100 nM) was 20%.

For the compound `Cc1cc(Nc2cc(C)[nH]n2)nc(-c2ccc(N3CC4CC(C3)N4Cc3ccc(-c4cscn4)nc3)nc2)n1` [Compound 129, 6-methyl-N-(5-methyl-1H-pyrazol-3-yl)-2-(6-(6-((6-(thiazol-4-yl)pyridin-3-yl)methyl)-3,6-diazabicyclo[3.1.1]heptan-3-yl)pyridin-3-yl)pyrimidin-4-amine], the inhibition at 0.01 µM on RET-V804M (setting [1]) turned out to be 84%. For the same compound, the inhibition at 0.03 µM on VEGFR2 is 52%.

Regarding `Cc1cc(Nc2cc(C)[nH]n2)nc(-c2ccc(N3CC4CC(C3)N4Cc3ccc(-c4ccc(F)[nH]4)nc3)nc2)n1` [Compound 131, 2-(6-(6-((6-(5-fluoro-1H-pyrrol-2-yl)pyridin-3-yl)methyl)-3,6-diazabicyclo[3.1.1]heptan-3-yl)pyridin-3-yl)-6-methyl-N-(5-methyl-1H-pyrazol-3-yl)pyrimidin-4-amine], the inhibition at 0.01 µM on RET-V804M (setting [1]) amounted to 72%. The inhibition at 0.03 µM at VEGFR2 is 50%.
